One test relates to HL-60 cells. Nature of the test: Annexin V-FITC/propidium iodide double staining and flow cytometry. It is filed as cell-based, human. The note with it: HL-60, 4 h of incubation, 50 μM Z-VAD-FMK. An excerpt:
To further investigate the effect of PM III on human cells, we performed annexin V-FITC/propidium iodide double staining with subsequent flow cytometric analysis. Annexin V-FITC binds to phosphatidylserine, which is exposed on the outer leaflet of the cellular plasma membrane at the initial stages of apoptosis, whereas propidium iodide (PI) preferentially stains nuclei of dead cells. Therefore, a combination of annexin V-FITC and PI assays allows differentiation between early apoptotic and late apoptotic/necrotic cell populations. PM III was used at two final concentrations of 2.5 and 5 μM. In order to elucidate the predominant mechanism of the PM III action, we applied a widely used caspase inhibitor, Z-VAD-FMK [23].
Cell death analysis with fluorescein isothiocyanate conjugated annexin V (annexin V-FITC)/propidium iodide double staining and dead cells counting with flow cytometry were performed 4 h after addition of polyphemusin III up to a final concentration of 2.5 or 5 μM. The Annexin V-FITC Apoptosis Detection Kit (BD Biosciences, Franklin Lakes, NJ, USA) was used according to the manufacturer’s protocol on a NovoCyte flow cytometer (ACEA Biosciences, San Diego, CA, USA). Each experiment was performed in triplicate. The apoptosis inducer camptothecin (Sigma-Aldrich, St. Louis, MO, USA) and the general caspase inhibitor, Z-VAD-FMK (BD Biosciences, Franklin Lakes, NJ, USA), were used. All flow cytometry experiments were performed twice.

For test [1], the system named is Gram-negative and Gram-positive bacteria. The conditions noted are these: synthetic PM I against Gram-negative and Gram-positive bacteria; cited from earlier work. On the procedure:
Our experimental data for the obtained recombinant PM I are in line with those obtained earlier for synthetic PM I against Gram-negative and Gram-positive bacteria (with reported MICs not exceeding 1 μM).

Where no end group is shown, it is not given here.

On to `CC[C@@]1(O)C(=O)OCc2c1cc1n(c2=O)Cc2cc3ccccc3nc2-1` [campthotecin, camptothecin], for which the “influence of the caspase inhibitor Z-VAD-FMK on the effect of the substance (annexin V-FITC/PI staining)” value with HL-60 cells was “totally abrogated”. Consider “synthetic PM I: synthetic polyphemusin I of earlier reports (RRWCFRVCYRGFCYRKCR; ends and bridges not checked; cysteine pairing not given here; UniProt P14215 1-18, looked up)”, for which the MICs in test [1] is at most 1 µM.

These data come from article PMC6315362, “Cytotoxic Potential of the Novel Horseshoe Crab Peptide Polyphemusin III” (Marine Drugs, 2018).
